18 molecules from patent publication US10583128B2, “Treatment of diseases related to alpha subunits of sodium channels, voltage-gated (SCNxA) with small molecules” (CuRNA, Inc., priority 2011, dated 2020) can be followed below.

The structures appear in SMILES notation. Structures can show the parent of a compound that is named as a salt.

For experiment [1], the system named is SCN1A mRNA. The experiment is described as follows: Upregulation of SCN1A mRNA in primary human skin fibroblasts carrying a Dravet-associated mutation (real time PCR). The class given is cell-based. Conditions: compound 1 uM, 24-48 h, 18S-normalized vs vehicle (DMSO), average upregulation; for fold induction at 1 µM: Homo sapiens, Skin fibroblast, read-out: fold increase in SCN1A mRNA levels, SCN1A fibroblasts, Avg. The protocol:
(§1) Transfer of a small molecule into a host cell or organism and determination of its effect upon RNA or protein up-regulation or down regulation can be assessed by several methods well known in the art. For example, SCN1A fibroblasts and/or keratinocytes or other cell types as desired are selected and grown for the specific assays herein. One day before the experiment cells are plated at the density of approximately 4×10^4/well into 24 well plates in Growth Media and incubated at 37° C. and 5% CO2 overnight. Next day, the media in the 24 well plates is changed to fresh Growth Media (1 ml/well) and the cells are dosed with small compounds. Compound stocks are prepared in DMSO at a concentration of 1 mM. At the time of the experiment 1 mM stock solutions are diluted to the concentration of 1 uM in Growth Media. One in 1000 dilution of DMSO is used for the control wells. After 24-48 h incubation at 37° C. and 5% CO2 the media is removed and RNA is extracted from the cells using SV Total RNA Isolation System from Promega (cat # Z3105) following the manufacturers' instructions. Six hundred nanograms of purified total RNA is added to the reverse transcription reaction performed using SuperScript VILO cDNA Synthesis Kit from Invitrogen (cat #11754-250) as described in the manufacturer's protocol. The cDNA from this reverse transcription reaction is used to monitor gene expression by real time PCR using ABI Taqman Gene Expression Mix (cat #4369510) and primers/probes designed by ABI (assays Hs00374696_ml, Hs00897350_ml or Hs00897341_ml for human SCN1A). The following PCR cycle is used: 50° C. for 2 min, 95° C. for 10 min, 40 cycles of (95° C. for 15 seconds, 60° C. for 1 min) using StepOne Plus Real Time PCR system (Applied Biosystems). The assay for 18S is manufactured by ABI (cat #4319413E). Fold change in gene expression after treatment with compounds is calculated based on the difference in 18S-normalized dCt values between compound- and vehicle-treated samples.
In Example 1 primary human skin fibroblasts carrying Dravet-associated SCN1A mutation were treated with small compounds at a final concentration of 1 uM.
Primary human skin fibroblasts carrying Dravet-associated SCN1A mutation introduced into culture by Dr. N. Kenyon (University of Miami) were grown in Growth Media consisting of a-MEM (Gibco, cat: 12561-056)+10% FBS (Mediatech, cat: 35-015 CV)+1% Antimycotic-Antibiotic (Gibco, cat: 15240-062) at 37° C. and 5% CO2. One day before the experiment cells were plated at the density of approximately 4×10^4/well into 24 well plates in Growth Media and incubated at 37° C. and 5% CO2 overnight. Next day, the media in the 24 well plates was changed to fresh Growth Media (I ml/well) and the cells were dosed with small compounds. All compounds were available from commercial sources. Compound stocks were prepared in DMSO at a concentration of 1 mM. At the time of the experiment 1 mM stock solutions were diluted to the concentration of 1 uM in Growth Media. One in 1000 dilution of DMSO was used for the control wells. After 24-48 h incubation at 37° C. and 5% CO2 the media was removed and RNA was extracted from the cells using SV Total RNA Isolation System from Promega (cat # Z3105) following the manufacturers' instructions. Six hundred nanograms of purified total RNA was added to the reverse transcription reaction performed using SuperScript VILO cDNA Synthesis Kit from Invitrogen (cat #11754-250) as described in the manufacturer's protocol. The cDNA from this reverse transcription reaction was used to monitor gene expression by real time PCR using ABI Taqman Gene Expression Mix (cat #4369510) and primers/probes designed by ABI (assays Hs00374696_ml, Hs00897350_ml or Hs00897341_ml for human SCN1A). Results obtained using all three assays were very similar (data not shown). […]
On the technique in general: Quantitative PCR measures a nucleic acid by following its amplification.

Experiment [2] deals with SCN1A mRNA. The experiment is described as follows: Upregulation of SCN1A mRNA in adult primary human keratinocytes (real time PCR). The format is cell-based. As to conditions: compound 1 uM, 24-48 h, 18S-normalized vs vehicle (DMSO), average upregulation; for fold induction at 1 µM: Homo sapiens, Keratinocyte, read-out: fold increase in SCN1A mRNA levels, Keratinocytes, Avg. As for the experimental part:
as §1
In Example 2 primary human keratinocytes were treated with small compounds at a final concentration of 1 uM.
Adult primary human keratinocytes from PromoCell (Heidelberg, Germany, cat # C-12003) or LifeLine Cell Technology (Frederick, Md., cat # FC-0025) were grown in Growth Media supplied by the manufacturers at 37° C. and 5% CO2. One day before the experiment cells were plated at the density of approximately 4×10^4/well into 24 well plates in Growth Media and incubated at 37° C. and 5% CO2 overnight. Next day, the media in the 24 well plates was changed to fresh Growth Media (1 ml/well) and the cells were dosed with small compounds. All compounds were available from commercial sources.
Compound stocks were prepared in DMSO at a concentration of 1 mM. At the time of the experiment 1 mM stock solutions were diluted to the concentration of 1 uM in Growth Media. One in 1000 dilution of DMSO was used for the control wells. After 24-48 h incubation at 37° C. and 5% CO2 the media was removed and RNA was extracted from the cells using SV Total RNA Isolation System from Promega (cat # Z3105) following the manufacturers' instructions. Six hundred nanograms of purified total RNA was added to the reverse transcription reaction performed using SuperScript VILO cDNA Synthesis Kit from Invitrogen (cat #11754-250) as described in the manufacturer's protocol. The cDNA from this reverse transcription reaction was used to monitor gene expression by real time PCR using ABI Taqman Gene Expression Mix (cat #4369510) and primers/probes designed by ABI (assays Hs00374696_ml, Hs00897350_ml or Hs00897341_ml for human SCN1A). Results obtained using all three assays were very similar (data not shown). The following PCR cycle was used: 50° C. for 2 min, 95° C. for 10 min, 40 cycles of (95° C. for 15 seconds, 60° C. for 1 min) using StepOne Plus Real Time PCR system (Applied Biosystems). The assay for 18S was manufactured by ABI (cat #4319413E). […]

For the molecule `CCOC(=O)C1=C(C)NC(C)=C(C(=O)OC)C1c1cccc([N+](=O)[O-])c1` (racemic) [Nitrendipine, (RS)-ethyl methyl 2,6-dimethyl-4-(3-nitrophenyl)-1,4-dihydropyridine-3,5-dicarboxylate], in the experiment with SCN1A mRNA [1], the fold induction at 1 µM turned out to be 2.13.

Take `CC(C)c1ccc2oc3nc(N)c(C(=O)O)cc3c(=O)c2c1` [Amlexanox, 2-amino-7-isopropyl-5-oxo-5H-chromeno[2,3-b]pyridine-3-carboxylic acid]: the fold induction at 1 µM in the experiment on SCN1A mRNA [2] came out at 5.41; in the experiment on SCN1A mRNA [1], 2.01.

For the molecule `COC(=O)C1=C(C)NC(C)=C(C(=O)OC2CCCN(Cc3ccccc3)C2)C1c1cccc([N+](=O)[O-])c1` [Benidipine, 5-Omethyl-3O-[(3R)-1-(phenylmethyl)-piperidin-3-yl]2,6-dimethyl-4-(3-nitrophenyl)-1,4-dihydropyridine-3,5-dicarboxylate], the fold induction at 1 µM with SCN1A mRNA [2] stood at 1.69; in the experiment with SCN1A mRNA [1], 3.01.

Regarding `O=c1c2ccccc2[se]n1-c1ccccc1` [Ebselen, 2-Phenyl-1,2-benzoselenazol-3-one], the fold induction at 1 µM came out at 2.67 with SCN1A mRNA [2] and 2.81 in the experiment on SCN1A mRNA [1].

As for `COc1ccc(-c2oc3c(CC=C(C)C)c(O[C@@H]4O[C@H](CO)[C@@H](O)[C@H](O)[C@H]4O)cc(O)c3c(=O)c2O[C@@H]2O[C@@H](C)[C@H](O)[C@@H](O)[C@H]2O)cc1` [Icariin, 5-hydroxy-2-(4-methoxyphenyl)-8-(3-methylbut-2-enyl)-7-[(2S,3R,4S,5S,6R)-3,4,5-trihydroxy-6-(hydroxymethyl)oxan-2-yl]oxy-3-[(2S,3R,4R,5R,6S)-3,4,5-trihydroxy-6-methyloxan-2-yl]oxychromen-4-one], the fold induction at 1 µM came to 2.29 in the experiment on SCN1A mRNA [2] and 2.38 in the experiment with SCN1A mRNA [1].

As for `CC(=O)N1CCN(c2ccc(OCC3COC(Cn4ccnc4)(c4ccc(Cl)cc4Cl)O3)cc2)CC1` [Ketoconazole, 1-[4-(4-{[(2R,4S)-2-(2,4-Dichlorophenyl)-2-(1H-imidazol-1-ylmethyl)-1,3-dioxolan-4-yl]methoxy}phenyl)piperazin-1-ylethan-1-one], the fold induction at 1 µM in the experiment with SCN1A mRNA [2] stood at 2.73; in the experiment with SCN1A mRNA [1], 2.95.

Consider `CS(=O)(=O)Nc1ccc(Cc2noc(-c3ccc4[nH]cc(CCN)c4c3)n2)cc1` [L-694,247, Methanesulfonamide,N-[4-[[5-[3-(2-aminoethyl)-1H-indol-5-yl]-1,2,4-oxadiazol-3-yl]methyl]phenyl]], for which the “fold increase in SCN1A mRNA levels, Keratinocytes, Avg” value in the experiment on SCN1A mRNA [2] is reported as 1.68 fold. Moreover, in the experiment with SCN1A mRNA [1], the “fold increase in SCN1A mRNA levels, SCN1A fibroblasts, Avg” value was found to be 2.20 fold.

For `COc1ccc(CN2CCN(C(c3ccc(F)cc3)c3ccc(F)cc3)CC2)c(OC)c1OC` [Lomerizine, 1-[bis(4-fluorophenyl)methyl]-4-[2,3,4-trimethoxyphenylmethyl]Dihydrochloride], the fold induction at 1 µM with SCN1A mRNA [2] is 3.47; with SCN1A mRNA [1], 2.39.

As for `CCN(CC)C(=O)C1(c2ccccc2)CC1CN` [Milnacipran, 1R(S),2S(R)[-2-(aminomethyl)-N,N-diethyl-1-phenylcyclopropanecarboxamide hydrochloride], the fold induction at 1 µM in the experiment on SCN1A mRNA [2] was determined as 2.72; in the experiment on SCN1A mRNA [1] it was 4.37.

For `CCOc1cc(N)c(Cl)cc1C(=O)NCC1CN(Cc2ccc(F)cc2)CCO1` (stereo not drawn) [Mosapride], the fold induction at 1 µM in the experiment with SCN1A mRNA [2] turned out to be 1.47; in the experiment on SCN1A mRNA [1], 1.9.

On to `CCc1nn(CCCN2CCN(c3cccc(Cl)c3)CC2)c(=O)n1CCOc1ccccc1` [Nefazadone, 2-[3-[4-(3-chlorophenyl)-1-piperazinyl]propyl]-5-ethyl-2,4-dihydro-4-(2-phenoxyethyl)-3H-1,2,4-triazol-3-one monohydrochloride], for which the fold induction at 1 µM in the experiment on SCN1A mRNA [2] was found to be 4.53; in the experiment on SCN1A mRNA [1], 2.39.

`CN1C(=O)CN=C(c2ccccc2)c2cc([N+](=O)[O-])ccc21` [Nimetazepam, 2-methyl-9-nitro-6-phenyl-2,5-diazabicyclo[5.4.0]undeca-5,8,10,12-tetraen-3-one]: the fold induction at 1 µM with SCN1A mRNA [2] came out at 2.47; in the experiment with SCN1A mRNA [1], 2.03.

Regarding `COc1ccc2[nH]c([S+]([O-])Cc3ncc(C)c(OC)c3C)nc2c1` (stereo not drawn) [Omeprazole, 6-methoxy-2-((4-methoxy-3,5-dimethylpyridin-2-yl)methylsulfinyl)-1H-benzo[d]imidazole Mg], the fold induction at 1 µM was 2.46 in the experiment with SCN1A mRNA [2] and 2.22 in the experiment with SCN1A mRNA [1].

As for `CC(N=C(NC#N)Nc1ccncc1)C(C)(C)C` (stereo not drawn) [Pinacidil, N-cyano-N′pyridin-4-yl-N″-(1,2,2-trimethylpropyl)guanidine], the fold induction at 1 µM in the experiment with SCN1A mRNA [1] stood at 3.48.

As to `Cc1nc2n(c(=O)c1CCN1CCC(c3noc4cc(F)ccc34)CC1)CCCC2` [Risperidone, 3-[2-[4-(6-flouro-1,2-benzisoxazol-3-yl)-1-piperidinyl]-ethyl]-6,7,8,9-tetrahydro-2-methyl-4H-pyrido[,2-a]pyrimidin-4-one], the fold induction at 1 µM was 3.02 in the experiment on SCN1A mRNA [2] and 3.48 in the experiment with SCN1A mRNA [1].

For the molecule `CN[C@H]1CC[C@@H](c2ccc(Cl)c(Cl)c2)c2ccccc21` [Sertraline, (1S,4S)-4-(3,4-dichlorophenyl)-N-methyl-1,2,3,4-tetrahydronaphthalen-1-amine], the values for the fold induction at 1 µM in the experiment on SCN1A mRNA [2] and in the experiment with SCN1A mRNA [1] were 5.18 and 1.79, respectively.

On to `C[C@]12Cc3c[nH]nc3C[C@@H]1CC[C@@H]1[C@@H]2CC[C@@]2(C)[C@H]1CC[C@]2(C)O` [Stanozolol, 17β-Hydroxy-17-methyl-5α-androstano[3,2-c]-pyrazole], for which the fold induction at 1 µM in the experiment on SCN1A mRNA [2] was determined as 1.76; in the experiment on SCN1A mRNA [1] it was 1.75.

For the molecule `Cc1cccc(Nc2ccncc2S(=O)(=O)NC(=O)NC(C)C)c1` [Torsemide], the fold induction at 1 µM in the experiment on SCN1A mRNA [1] worked out at 3.7.
